Experimental data taken from patent US20060183221A1, “Method for neural differentiation of embryonic stem cells using protease passaging techniques” (priority 2003, published 2006).
Entries after “also recorded” stand apart in the source; their conditions may differ.

Experiments:
sfEBMs in suspension = assay: S18 treatment of essentially serum free embryoid bodies (sfEBMs) in suspension, histology and immunocytochemistry; format: cell-based, human
Experimental: Essentially serum free embryoid bodies (sfEBMs) were generated as described in Example 6, and were exposed to S18 at different stages of their development in order to assess the timing of depletion of high Oct4 expressing cells, and in order to determine when neural rosettes could be selected. The sfEBMs in suspension were treated with 10 μM S18 in 50% DMEM/F12, 50% MEDII, supplemented with 1×N2, Glutamine (20 mM), penicillin (0.5 U/ml), and streptomycin (0.5 U/ml) for varying amounts of time, and the sfEBMs were then evaluated histologically and by immunocytochemistry.
Essentially serum free embryoid bodies were derived from protease passaged cells and grown in the presence of 50% MEDII conditioned medium. The embryoid bodies were exposed to 10 μM S18 in the same medium from day 6 to 9 after derivation. At day 9 the S18 treated sfEBMs and matched control sfEBMs not exposed to S18 were fixed, embedded in plastic, cut to 3 micron sections and stained with DAPI to enable the precise determination of the proportion of the total healthy nuclei of an sfEBM that were rosette cell nuclei.
This material was exposed to 10 μM S18 in 50% MEDII medium for 2 days, followed by manual passaging, and an additional 4 days in 10 μM S18 in the same medium. […] The non-rosette regions of the sfEBM fragmented when manipulated and released extensive stringy material that was indicative of genomic DNA from lysed cells. […] The rosette pieces were incubated in 10 μM S18 for a further 4 days, and the medium was then switched to 50% DMEM/F12, 50% MEDII, supplemented with 1×N2, and 4 ng/ml FGF-2 at day 20 after the initial derivation of the embryoid bodies.
At day 21 some ceramide selected sfEBMs were seeded onto polyornithine/laminin coated slides, cultured in the same medium for an additional 8 days, and fixed for immunostaining. These seeded pieces developed as rosette cultures and mats of neurons were observed differentiating from these precursors.
Essentially serum free embryoid bodies were derived from manually passaged cells, or protease passaged cells. EBs derived from protease passaged cells were formed in the presence of 50% MEDII conditioned medium. The embryoid bodies were exposed to 10 μM S18 in the same medium from day 6 to 9 after derivation. At day 9 the S18 treated sfEBMs matched control sfEBMs not exposed to S18, and matched control manually passaged sfEBs were sectioned to enable the precise determination of the proportion of the total healthy nuclei of an sfEBM that were rosette cell nuclei. The serum free embryoid bodies were embedded using the Immuno-Bed kit (Polysciences, Inc.). Serum free embryoid bodies were rinsed with 1×PBS and fixed in 4% paraformaldehyde, 4% sucrose in 1×PBS for 30 minutes at 4° C. The cells were then washed in 1×PBS and stored at 4° C. PBS was removed and the embryoid bodies were dehydrated by incubation in a series of 25%, 50%, 75% Ethanol/PBS for 5 minutes at room temperature, followed by 100% Ethanol. Infiltration solution was made by adding 0.25 g Benzoyl Peroxide to 20 ml Immuno-Bed Solution A. The ethanol was removed from the serum free embryoid bodies and 1 ml infiltration solution was added. After one hour, the infiltration solution was changed for three 20 min incubations. For embedding, 1 ml solution B (accelerator) was added to 25 ml fresh infiltration solution. The infiltration solution was removed from the serum free embryoid bodies and 0.5 ml embedding solution was added. The samples were transferred to a mold, a block holder was added and the mold was placed at 4° C. to set. 3 micron sections were cut using a Leica microtome, and were stained with DAPI.

SSEA4 selected HESCs = assay: Neural differentiation of SSEA4 selected bulk passaged HESCs as serum free embryoid bodies with or without MEDII and S18, seeded and immunostained; format: cell-based, human; settings: with or without 10 μM S18 from day 13 to day 17
Experimental: Cultures were treated with or without 10 μM S18 from day 13 to day 17. After S18 treatment, serum free embryoid bodies were washed several times and cultured further until day 18. Serum free embryoid bodies were cut into pieces to seed down to polyornithine/laminin coated slides.
In the presence of MEDII, a consistently high proportion of the culture contained TH+ neurons, with the background of non-neural regions that was negative for the neuronal marker βIII-Tubulin typically lower than 10%. It was not determined whether the effect of MEDII induced more efficient neuralization or inhibited the generation of non-neural cell types. […] This proportion was determined by analysis of double staining of neural extensions for βIII-Tubulin and TH (FIG. 18), and overlaying Hoffman images with TH immunofluorescence (FIG. 19). The increase in the proportion of TH+ neurons in MEDII treated differentiations appeared to be due to the overall increase in neuronal differentiation, rather than an effect on the proportion of neurons that were dopaminergic, because the proportions of neurons that were TH+ in differentiations not exposed to MEDII was equally high. Another marker of DA cells, VMAT, was expressed in similarly high proportions of cells within the sfEBM cultures. TH+/VMAT−, TH−/VMAT+ and TH+/VMAT+ cells were observed (FIG. 20), possibly indicating temporal variability in the induction of expression of these markers prior to being co-expressed.

[1] = sfEBMs at day 14, 48 hours exposure to 10 μM S18

## CCCCCCCC/C=C\CCCCCCCC(=O)NC(CO)CO [S18, N-(2-hydroxy-1-(hydroxymethyl)ethyl)-oleoylamide]
sfEBMs in suspension; 10 μM S18, four days of treatment
  derivation of sfEBMs from monolayer crater cells: No viable embryoid bodies were observed
sfEBMs in suspension; 10 μM S18 in suspension, then seeded, anti-Oct4 immunostaining
  regions or cells of high Oct4 expression (residual pluripotent cells): no regions of high Oct4 expression could be detected; also recorded: do not exhibit any cells expressing high levels of Oct4
sfEBMs in suspension; day 28 after derivation, 8 days after withdrawal of S18
  mitotic activity of neural rosette precursor cells (PhosphoHistone H3): still mitotically active
sfEBMs in suspension; [1]
  apoptosis in the embryoid bodies: extensive apoptosis in the bodies
  morphology of rosette regions: morphologically normal
sfEBMs in suspension; sfEBMs from SSEA4 selected protease passaged HESCs, 10 μM S18 from day 6 to 9
  surviving cells in DAPI stained sections of sfEBMs: highly enriched population of neural rosette cells; also recorded: nearly all nuclei in the treated sfEBM were elongated in appearance; also recorded: Nearly all cells exhibited a radial nuclear staining
SSEA4 selected HESCs
  differences between S18− and S18+ cultures (sfEB, sfEBM): No gross morphological or immunocytochemical staining differences were observed
